In patent US8372617B2, “β-galactoside-α2,6-sialyltransferase, a gene encoding thereof, and a method for enhancing enzyme activity” (Japan Tobacco Inc., priority 2007, dated 2013):
Where “and” joins values, the source holds several entries; their conditions need not be identical. Equal values may be shown once.

Tested on: recombinant β-galactoside-α2,6-sialyltransferase N1C0
Assay: Transfer of sialic acid to glycoproteins
Format: biochemical, Photobacterium leiognathi
Settings: enzyme +; 30° C. for 0.5 hours
Protocol: As a glycosyl acceptor substrate, asialofetuin and asialomucin were each used. Asialofetuin or asialomucin (2 mg) was dissolved in 1 ml of 20 mM Bis-Tris buffer (pH 7.0) and used as a glycosyl acceptor substrate solution. As a glycosyl donor substrate, CMP-NeuAc was used. The glycosyl acceptor substrate solution (40 μl), the glycosyl donor substrate (5 μl) and the enzyme solution (5 μl) were mixed and incubated at 30° C. for 0.5 hours to cause sialic acid transfer reaction. After completion of the reaction, the reaction solution was gel-filtered by being applied to a Sephadex G-50 Superfine (0.8×18.0 cm) equilibrated with 0.1 M sodium chloride. A glycoprotein-containing eluate fraction (2-4 ml fraction) from gel filtration was collected and measured for its radioactivity using a liquid scintillation counter to quantify sialic acid transferred to the glycosyl acceptor substrate.

Sequence of recombinant β-galactoside-α2,6-sialyltransferase N1C0 (as listed by the source): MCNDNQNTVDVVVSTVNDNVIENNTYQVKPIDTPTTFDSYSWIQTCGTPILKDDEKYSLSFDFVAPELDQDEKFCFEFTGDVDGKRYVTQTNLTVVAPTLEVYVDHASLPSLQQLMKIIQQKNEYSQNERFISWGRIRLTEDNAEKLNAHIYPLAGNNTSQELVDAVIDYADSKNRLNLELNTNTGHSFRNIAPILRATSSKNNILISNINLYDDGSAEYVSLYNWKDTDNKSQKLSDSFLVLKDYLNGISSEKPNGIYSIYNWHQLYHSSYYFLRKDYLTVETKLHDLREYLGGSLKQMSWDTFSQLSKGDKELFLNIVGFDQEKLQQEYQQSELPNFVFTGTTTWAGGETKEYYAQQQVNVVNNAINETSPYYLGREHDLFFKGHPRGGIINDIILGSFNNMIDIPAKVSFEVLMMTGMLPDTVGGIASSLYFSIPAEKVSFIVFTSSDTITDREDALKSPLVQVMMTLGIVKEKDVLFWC

Asialofetuin: glycoprotein used as glycosyl acceptor substrate
NeuAc transferred (cpm): 2140 cpm and 2038 cpm
